IC50 data for one molecule are collected here from article PMC9329448 (Journal of Experimental Pharmacology, 2022).

The target in this assay is human dihydroorotate dehydrogenase (HsDHODH) (Homo sapiens, UniProt Q02127). The format is biochemical.

The structures appear in SMILES notation.

Chain of human dihydroorotate dehydrogenase (HsDHODH) (Q02127 whole entry): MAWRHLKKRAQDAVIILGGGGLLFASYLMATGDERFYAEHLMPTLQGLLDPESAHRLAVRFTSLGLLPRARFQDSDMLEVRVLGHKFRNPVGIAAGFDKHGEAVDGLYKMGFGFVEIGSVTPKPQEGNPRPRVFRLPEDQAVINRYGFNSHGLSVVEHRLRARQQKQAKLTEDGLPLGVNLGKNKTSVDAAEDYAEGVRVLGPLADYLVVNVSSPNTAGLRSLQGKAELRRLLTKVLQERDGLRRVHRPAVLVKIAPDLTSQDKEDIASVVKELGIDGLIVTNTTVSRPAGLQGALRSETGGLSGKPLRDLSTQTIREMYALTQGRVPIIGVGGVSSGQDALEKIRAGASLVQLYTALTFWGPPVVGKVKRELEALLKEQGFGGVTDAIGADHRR

What is called IC50 is the concentration that inhibits the measured activity by half. Lower therefore signals greater potency. Consider `O=C(/C=C/c1ccc(O)c(O)c1)OCCc1ccccc1` [CAPE, caffeic acid phenethyl ester], for which the half-maximal inhibitory concentration (IC50) stood at 121 ± 6.78 µM.
